Experimental data: ChEMBL document CHEMBL2040817, “Fragment-based discovery of hydroxy-indazole-carboxamides as novel small molecule inhibitors of Hsp90” (Bioorg Med Chem Lett, 2012)

Key:
[1] = target: T1, Heat shock protein HSP 90-beta (Homo sapiens, UniProt P08238); test: Displacement of [3H]17AAG from human recombinant Hsp90 after 30 mins by beta scintillation counting
A2780 = test: Antiproliferative activity against human A2780 cells after 72 hrs by alamar blue assay; format: functional, cell-based; details: A2780, 72 h
PC-3 = test: Antiproliferative activity against human PC3 cells after 72 hrs by alamar blue assay; format: functional, cell-based; details: PC-3, 72 h
MCF7 = test: Antiproliferative activity against human MCF7 cells after 72 hrs by alamar blue assay; format: functional, cell-based; details: MCF7, 72 h
COLO 205 = test: Antiproliferative activity against human COLO205 cells after 72 hrs by alamar blue assay; format: functional, cell-based; details: COLO 205, 72 h
[2] = target: T1, Heat shock protein HSP 90-beta; test: Inhibition of Hsp90 in human A2780 cells assessed as Hsp70 upregulation after 24 hrs by immunostaining method; format: cell-based

T1 sequence (P08238 whole entry): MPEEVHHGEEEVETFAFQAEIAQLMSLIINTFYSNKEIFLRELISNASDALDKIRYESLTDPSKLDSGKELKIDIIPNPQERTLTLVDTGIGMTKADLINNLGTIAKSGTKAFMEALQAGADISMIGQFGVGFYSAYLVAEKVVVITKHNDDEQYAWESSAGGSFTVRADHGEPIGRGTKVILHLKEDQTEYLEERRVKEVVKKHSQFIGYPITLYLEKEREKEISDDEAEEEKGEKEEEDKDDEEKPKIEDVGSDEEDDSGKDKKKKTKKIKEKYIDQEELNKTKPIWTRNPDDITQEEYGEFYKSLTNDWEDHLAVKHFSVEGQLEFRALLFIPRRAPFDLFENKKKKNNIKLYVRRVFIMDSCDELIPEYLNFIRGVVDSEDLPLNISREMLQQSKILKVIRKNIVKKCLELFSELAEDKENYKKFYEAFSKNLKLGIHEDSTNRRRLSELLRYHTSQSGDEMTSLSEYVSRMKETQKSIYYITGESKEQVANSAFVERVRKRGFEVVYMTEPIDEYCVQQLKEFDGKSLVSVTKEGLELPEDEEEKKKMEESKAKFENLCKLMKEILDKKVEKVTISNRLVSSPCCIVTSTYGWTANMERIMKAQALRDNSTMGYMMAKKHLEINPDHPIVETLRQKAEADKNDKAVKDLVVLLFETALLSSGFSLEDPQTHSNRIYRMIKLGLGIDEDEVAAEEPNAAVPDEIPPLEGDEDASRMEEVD

Compound `NC(=O)c1cc2c(Cc3ccccc3)n[nH]c2cc1O` has an IC50 [1] of 61 µM.

Compound `CN(Cc1ccccc1Br)C(=O)c1cc2c(Cc3cccc(Cl)c3)n[nH]c2cc1O` has an IC50 [1] of 0.59 µM and an IC50 (A2780) of 0.13 µM.

For `CN(Cc1cccc(Br)c1)C(=O)c1cc2c(Cc3ccccc3)n[nH]c2cc1O`, the IC50 [1] was 1.3 µM and the IC50 (A2780) was 7.1 µM.

In the case of `CCOc1ccc(CN(C)C(=O)c2cc3c(Cc4ccccc4)n[nH]c3cc2O)cc1`, the IC50 [1] is reported as 0.76 µM and the IC50 (A2780) is reported as 3.2 µM.

`Cc1cccc(Cc2n[nH]c3cc(O)c(C(=O)N(C)Cc4cccc(F)c4)cc23)c1` showed an IC50 [1] of 0.37 µM and an IC50 (A2780) of 0.44 µM.

`CN(Cc1cccc(F)c1)C(=O)c1cc2c(Cc3cccc(Cl)c3)n[nH]c2cc1O` showed an IC50 [1] of 0.71 µM and an IC50 (A2780) of 0.44 µM.

`CN(Cc1ccccc1)C(=O)c1cc2c(CCc3ccccc3)n[nH]c2cc1O` was tested, and the IC50 [1] was 0.23 µM and the IC50 (A2780) was 4.6 µM.

Compound `Cc1cccc(Cc2n[nH]c3cc(O)c(C(=O)N(C)Cc4ccc(NS(C)(=O)=O)cc4)cc23)c1` has an IC50 [1] of 0.35 µM and an IC50 (A2780) of 1.6 µM.

`CN(Cc1cccc(C(F)(F)F)c1)C(=O)c1cc2c(Cc3ccccc3)n[nH]c2cc1O` was tested, and the IC50 [1] was 3.4 µM.

Work on `CN(Cc1ccccc1Br)C(=O)c1cc2c(Cc3ccccc3)n[nH]c2cc1O` yielded an IC50 [1] of 0.61 µM and an IC50 (A2780) of 1.2 µM.

With `CN(Cc1ccc(Cl)cc1)C(=O)c1cc2c(Cc3ccccc3)n[nH]c2cc1O` the IC50 [1] was 0.33 µM and the IC50 (A2780) was 2.6 µM.

Compound `CCc1ccc(CN(C)C(=O)c2cc3c(Cc4ccccc4)n[nH]c3cc2O)cc1` has an IC50 [1] of 0.39 µM and an IC50 (A2780) of 9.4 µM.

In the case of `Cc1ccc(-c2nc(N)nc3ccc(Cl)cc23)cc1`, the IC50 [1] is reported as 0.9 µM.

`CN(Cc1ccccc1)C(=O)c1cc2c(Cc3cccc(F)c3)n[nH]c2cc1O` gave an IC50 [1] of 1.3 µM and an IC50 (A2780) of 1.7 µM.

`COc1cc2[nH]nc(Cc3cccc(C)c3)c2cc1C(=O)N(C)Cc1ccccc1` gave an IC50 [1] greater than 20 µM.

Compound `Cc1cccc(Cc2n[nH]c3cc(O)c(C(=O)N(C)Cc4ccccc4Br)cc23)c1` has an IC50 [1] of 0.78 µM and an IC50 (A2780) of 0.31 µM.

`CN(Cc1ccc(F)cc1)C(=O)c1cc2c(Cc3cccc(Cl)c3)n[nH]c2cc1O` showed an IC50 [1] of 0.8 µM and an IC50 (A2780) of 0.41 µM.

`COc1cc(CN(C)C(=O)c2cc3c(Cc4ccccc4)n[nH]c3cc2O)ccc1Cl` gave an IC50 [1] of 2.3 µM and an IC50 (A2780) of 4.1 µM.

Compound `CN(Cc1ccc(CNS(C)(=O)=O)cc1)C(=O)c1cc2c(Cc3cccc(Cl)c3)n[nH]c2cc1O` has an IC50 [1] of 0.06 µM, an IC50 (A2780) of 0.57 µM and an IC50 (PC-3) of 4.3 µM. It also gave an IC50 (MCF7) of 3.5 µM, an IC50 (COLO 205) of 9.5 µM and an IC50 [2] of 1 µM.

For `Cc1cccc(Cc2n[nH]c3cc(O)c(C(=O)N(C)Cc4ccc(F)c(F)c4)cc23)c1`, the IC50 [1] was 0.5 µM and the IC50 (A2780) was 0.53 µM.

`COc1cccc(Cc2n[nH]c3cc(O)c(C(=O)N(C)Cc4ccccc4)cc23)c1` showed an IC50 [1] of 1.4 µM.

For `CN(Cc1cccc(NS(C)(=O)=O)c1)C(=O)c1cc2c(Cc3cccc(Cl)c3)n[nH]c2cc1O`, the IC50 [1] was 0.41 µM and the IC50 (A2780) was 3.2 µM.

`COc1cc(CN(C)C(=O)c2cc3c(Cc4cccc(C)c4)n[nH]c3cc2O)ccc1Cl` was tested, and the IC50 [1] was 0.68 µM and the IC50 (A2780) was 1.6 µM.

Compound `Cc1cccc(Cc2n[nH]c3cc(O)c(C(=O)N(C)Cc4ccccc4)cc23)c1` has an IC50 (A2780) of 0.49 µM.

For `Cc1cccc(Cc2n[nH]c3cc(O)c(C(=O)N(C)Cc4ccc(CNS(C)(=O)=O)cc4)cc23)c1`, the IC50 [1] was 0.15 µM, the IC50 (A2780) was 0.71 µM and the IC50 (PC-3) was greater than 10 µM. It also gave an IC50 (MCF7) of 4.7 µM, an IC50 (COLO 205) of 3.7 µM and an IC50 [2] of 1.1 µM.

`CN(Cc1cccc(F)c1)C(=O)c1cc2c(Cc3ccccc3)n[nH]c2cc1O` gave an IC50 [1] of 0.57 µM and an IC50 (A2780) of 5 µM.

For `Cc1ccccc1Cc1n[nH]c2cc(O)c(C(=O)N(C)Cc3ccccc3)cc12`, the IC50 [1] was 2.4 µM.

Compound `Nc1nc(Cl)cc(Cc2ccc(Cl)cc2)n1` has an IC50 [1] of 21 µM.

Compound `Cc1cccc(Cc2n[nH]c3cc(O)c(C(=O)N(C)Cc4ccc(F)cc4)cc23)c1` has an IC50 [1] of 0.58 µM and an IC50 (A2780) of 0.59 µM.

With `COCCN(C)C(=O)c1cc2c(Cc3ccccc3)n[nH]c2cc1O` the IC50 [1] was 4 µM.

With `CN(Cc1ccc(Cl)c(F)c1)C(=O)c1cc2c(Cc3ccccc3)n[nH]c2cc1O` the IC50 [1] was 0.98 µM and the IC50 (A2780) was greater than 10 µM.

`CN(Cc1ccccc1F)C(=O)c1cc2c(Cc3ccccc3)n[nH]c2cc1O` was tested, and the IC50 [1] was 0.9 µM and the IC50 (A2780) was 1.5 µM.

In the case of `COc1ccc(CN(C)C(=O)c2cc3c(Cc4cccc(C)c4)n[nH]c3cc2O)cc1`, the IC50 [1] is reported as 0.46 µM and the IC50 (A2780) is reported as 0.54 µM.

`COc1cccc(CN(C)C(=O)c2cc3c(Cc4ccccc4)n[nH]c3cc2O)c1OC` was tested, and the IC50 [1] was 0.47 µM and the IC50 (A2780) was 4.8 µM.

Compound `COc1ccc(CN(C)C(=O)c2cc3c(Cc4cccc(C)c4)n[nH]c3cc2O)cc1OC` has an IC50 [1] of 0.58 µM and an IC50 (A2780) of 3.7 µM.

`Cc1cccc(Cc2n[nH]c3cc(O)c(C(=O)NCc4ccccc4)cc23)c1` was tested, and the IC50 [1] was 1.5 µM and the IC50 (A2780) was greater than 10 µM.

`CN(Cc1cccc(Cl)c1)C(=O)c1cc2c(Cc3ccccc3)n[nH]c2cc1O` showed an IC50 [1] of 1.5 µM and an IC50 (A2780) of 5.3 µM.

Work on `CCc1cccc(Cc2n[nH]c3cc(O)c(C(=O)N(C)Cc4ccccc4)cc23)c1` yielded an IC50 [1] of 1.3 µM.

For `Oc1ccc2c(C3CCCC3)n[nH]c2c1`, the IC50 [1] was 87 µM.

`Cc1cccc(Cc2n[nH]c3cc(O)c(C(=O)N(C)Cc4cccc(NS(C)(=O)=O)c4)cc23)c1` was tested, and the IC50 [1] was 0.2 µM and the IC50 (A2780) was 4 µM.

In the case of `COc1ccc(CN(C)C(=O)c2cc3c(Cc4cccc(Cl)c4)n[nH]c3cc2O)cc1`, the IC50 [1] is reported as 0.8 µM and the IC50 (A2780) is reported as 0.39 µM.

`CN(Cc1ccc(Br)cc1)C(=O)c1cc2c(Cc3ccccc3)n[nH]c2cc1O` was tested, and the IC50 [1] was 1.1 µM and the IC50 (A2780) was 2.8 µM.

In the case of `Cc1cccc(Cc2n[nH]c3cc(O)c(C(=O)N(C)Cc4ccc(Cl)c(F)c4)cc23)c1`, the IC50 [1] is reported as 0.17 µM and the IC50 (A2780) is reported as 0.93 µM.

For `CCc1ccc(Cc2n[nH]c3cc(O)c(C(=O)N(C)Cc4ccccc4)cc23)cc1`, the IC50 [1] was 2.5 µM and the IC50 (A2780) was greater than 10 µM.

`Cc1ccc(Cc2n[nH]c3cc(O)c(C(=O)N(C)Cc4ccccc4)cc23)cc1` gave an IC50 [1] of 1.3 µM and an IC50 (A2780) greater than 10 µM.

Compound `COc1ccccc1CN(C)C(=O)c1cc2c(Cc3ccccc3)n[nH]c2cc1O` has an IC50 [1] of 1.7 µM and an IC50 (A2780) of 5.4 µM.

With `CN(Cc1ccccc1)C(=O)c1cc2c(Cc3cccc(Cl)c3)n[nH]c2cc1O` the IC50 [1] was 0.4 µM and the IC50 (A2780) was 0.41 µM.

Work on `CN(Cc1ccccc1)C(=O)c1cc2c(Cc3ccc(Cl)cc3)n[nH]c2cc1O` yielded an IC50 [1] of 5.7 µM.

Compound `COc1ccc(CN(C)C(=O)c2cc3c(Cc4cccc(Cl)c4)n[nH]c3cc2O)cc1OC` has an IC50 [1] of 0.73 µM and an IC50 (A2780) of 2.4 µM.

For `CCCN(C)C(=O)c1cc2c(Cc3ccccc3)n[nH]c2cc1O`, the IC50 [1] was 1.9 µM and the IC50 (A2780) was greater than 10 µM.

`Cc1ccc(CN(C)C(=O)c2cc3c(Cc4ccccc4)n[nH]c3cc2O)cc1` gave an IC50 [1] of 0.63 µM and an IC50 (A2780) of 6.9 µM.

For `CCCCN(C)C(=O)c1cc2c(Cc3ccccc3)n[nH]c2cc1O`, the IC50 [1] was 1.8 µM and the IC50 (A2780) was 7.6 µM.

In the case of `Cc1ccccc1CN(C)C(=O)c1cc2c(Cc3ccccc3)n[nH]c2cc1O`, the IC50 [1] is reported as 0.74 µM and the IC50 (A2780) is reported as 4.4 µM.

`CN(Cc1ccccc1)C(=O)c1cc2c(Cc3ccccc3)n[nH]c2cc1O` was tested, and the IC50 [1] was 0.66 µM and the IC50 (A2780) was 0.98 µM.

For `CCN(Cc1ccccc1)C(=O)c1cc2c(Cc3cccc(C)c3)n[nH]c2cc1O`, the IC50 [1] was 3 µM.

In the case of `CN(Cc1ccccc1)C(=O)c1cc2c(Cc3ccccc3Cl)n[nH]c2cc1O`, the IC50 [1] is reported as 2.6 µM.

With `COc1cccc(CN(C)C(=O)c2cc3c(Cc4ccccc4)n[nH]c3cc2O)c1` the IC50 [1] was 0.98 µM and the IC50 (A2780) was 3.8 µM.

`CN(C(=O)c1cc2c(Cc3ccccc3)n[nH]c2cc1O)c1ccco1` gave an IC50 [1] of 0.61 µM and an IC50 (A2780) of 2.5 µM.

`CN(Cc1ccccc1Cl)C(=O)c1cc2c(Cc3ccccc3)n[nH]c2cc1O` gave an IC50 [1] of 1.1 µM and an IC50 (A2780) of 1.1 µM.

`Cc1cccc(CN(C)C(=O)c2cc3c(Cc4ccccc4)n[nH]c3cc2O)c1` showed an IC50 [1] of 3.6 µM.

`CN(Cc1ccc(F)cc1)C(=O)c1cc2c(Cc3ccccc3)n[nH]c2cc1O` was tested, and the IC50 [1] was 1.1 µM and the IC50 (A2780) was 4.1 µM.
